A short description of data set [1]: Solid-state stability and interconversion of the crystalline forms. In kind it is physicochemical. The following applies: for temperature range in which the polymorph is the stable form (enantiotropic transition temperature): Form I / Form III enantiotropic pair, transition about 34° C.
A further data set in a line: Solubility in water. In kind it is physicochemical.

Data on three compounds can be found in US20060287528A1, “Novel crystalline forms of a phosphoric acid salt of a dipeptidyl peptidase-iv inhibitor” (priority 2003, published 2006).

The structures appear in SMILES notation.

Consider `N[C@@H](CC(=O)N1CCn2c(nnc2C(F)(F)F)C1)Cc1cc(F)c(F)cc1F` [anhydrate Form III], for which the “temperature range in which the polymorph is the stable form (enantiotropic transition temperature)” value in data set [1] was “below 34 °C”. For `N[C@@H](CC(=O)N1CCn2c(nnc2C(F)(F)F)C1)Cc1cc(F)c(F)cc1F` [anhydrate Form I], the solubility in the data set “Solubility in water” was above 120 mg/mL. Also, the “temperature range in which the polymorph is the stable form (enantiotropic transition temperature)” value in data set [1] was “above 34 °C”. Regarding `N[C@@H](CC(=O)N1CCn2c(nnc2C(F)(F)F)C1)Cc1cc(F)c(F)cc1F` [desolvated anhydrate Form II], in data set [1] (at about 45° C., form is metastable), the “time for conversion to anhydrate Form I or Form III or mixtures thereof” value was “about 2 h”.

As a reminder, the solubility is the concentration that dissolves in the medium under given conditions.
